According to ChEMBL document CHEMBL1145256, “Synthesis of novel 10-deoxoartemisinins” (Bioorg Med Chem Lett, 2005):

Tests used:
[1] = system: Plasmodium falciparum; assay: microbe, parasite or virus in culture
Description: In vitro antimalarial activity against Plasmodium falciparum (Ghana)

[2] = system: Plasmodium falciparum; assay: microbe, parasite or virus in culture; remark: listed apart in the source
Description: In vitro antimalarial activity against Plasmodium falciparum resistant W-2

| Structure (SMILES) | IC50 [1] | IC50 [2] |
| --- | --- | --- |
| C[C@@H]1CC[C@H]2[C@@H](C)C(=O)O[C@@H]3O[C@@]4(C)CC[C@@H]1[C@]32OO4 [ARTEMISININ] | 9 nM | – |
| CCCNCC[C@H]1O[C@@H]2O[C@]3(C)CC[C@H]4[C@H](C)CC[C@@H]([C@H]1C)[C@@]24OO3 | 1 nM | 3 nM |
| C[C@H]1[C@@H](CCO)O[C@@H]2OC3(C)CC[C@H]4[C@H](C)CC[C@@H]1[C@@]24OO3 (single isomer, unassigned) | 1 nM | 1 nM |
| C[C@H]1[C@@H](CCNCc2ccccn2)O[C@@H]2O[C@]3(C)CC[C@H]4[C@H](C)CC[C@@H]1[C@@]24OO3 | 2 nM | 2 nM |
| C[C@H]1[C@@H](CCOC(=O)CCC(=O)O)O[C@@H]2O[C@]3(C)CC[C@H]4[C@H](C)CC[C@@H]1[C@@]24OO3 | 0.5 nM | 0.4 nM |
| C[C@H]1[C@@H](CCOC(=O)C2CCCCC2C(=O)O)O[C@@H]2O[C@]3(C)CC[C@H]4[C@H](C)CC[C@@H]1[C@@]24OO3 (some centres not stated) | 0.5 nM | 0.4 nM |
| C[C@H]1[C@@H](CCNCc2cccnc2)O[C@@H]2O[C@]3(C)CC[C@H]4[C@H](C)CC[C@@H]1[C@@]24OO3 | 1 nM | 1 nM |
| C[C@H]1[C@@H](CCNCCc2ccccc2)O[C@@H]2O[C@]3(C)CC[C@H]4[C@H](C)CC[C@@H]1[C@@]24OO3 | 11 nM | 20 nM |
| C[C@H]1[C@@H](CCOC(=O)C2CC=CCC2C(=O)O)O[C@@H]2O[C@]3(C)CC[C@H]4[C@H](C)CC[C@@H]1[C@@]24OO3 (some centres not stated) | 0.5 nM | 0.4 nM |
